From PubChem BioAssay AID687000 (Broad Institute, 2013)
Values joined by “and” are separate entries in the source; they are usually repeats but may differ in a detail not shown here. Equal values may be shown once. Active and inactive are the calls of the source.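 The calls were made as follows: active = fitted dose curve reaches 40% lysis signal rise at or below the highest valid concentration tested for that sample; inconclusive = flat fit between 30% and 70%, or poor curve fit; inactive = signal falls, stays flat within 30%, or no crossing.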

Each molecule was assayed on C. neoformans lysis, adenylate kinase release luminescence, 4 h (assay: inducers of Cryptococcus neoformans cell lysis, dose response, AK release luminescence, cherry-picks (AID 687000)).
`Cc1cccc(-c2ccc([C@H]3[C@H](CO)N4CCCCN(C(=O)c5ccc6c(c5)OCO6)C[C@@H]34)cc2)c1` was tested, and the AC40 was > 15 µM (inactive).
For `COC(=O)C1=C(C)N(CC(C)C)C(=S)NC1c1ccc(Cl)cc1` (centres undefined), the AC40 was 2.36 µM and 0.971 µM.
With `C[C@H](CO)N1C[C@H](C)[C@H](CN(C)Cc2ccccc2)OCCCC[C@H](C)Oc2ccc(NS(=O)(=O)c3cccs3)cc2C1=O` the AC40 was > 15 µM (inactive).
In the case of `COC(=O)C1=C(C)N(C)C(=S)NC1c1ccccc1` (centres undefined), the AC40 is reported as > 26 µM (inactive).
With `CCCC(=O)Nc1ccc2c(c1)C(=O)N(C)C[C@H](OC)[C@@H](C)CN(C(=O)c1cccnc1)[C@@H](C)CO2` the AC40 was > 15 µM (inactive).
In the case of `COc1ccccc1NC(=S)NCc1ccc(Cl)cc1`, the AC40 is reported as 2.19 µM.
`COc1cccc(C(=O)NC(=S)Nc2ccccc2N2CCOCC2)c1` was tested, and the AC40 was > 15 µM (inactive).
For `Cc1ccc(C(=O)NC(=S)Nc2ccc(N3CCOCC3)cc2)cc1`, the AC40 was 11.9 µM.
In the case of `COc1ccc(CN(C)C[C@H]2Oc3ccc(NC(=O)Nc4ccc(F)cc4)cc3CC(=O)N([C@@H](C)CO)C[C@@H]2C)cc1`, the AC40 is reported as > 16 µM (inactive).
Molecule `C[C@@H]1CCCCO[C@@H](CN(C)C(=O)CCCN(C)C)[C@@H](C)CN([C@H](C)CO)C(=O)c2cc(NC(=O)Cc3ccccc3)ccc2O1` has an AC40 of 14.8 µM.
For `CCCNC(=O)C[C@@H]1CC[C@@H]2[C@H](COc3ccc(NC(=O)CCC)cc3C(=O)N2C)O1`, the AC40 was > 15 µM (inactive).
With `COC(=O)C1=C(C)N(Cc2ccc(Cl)cc2)C(=S)NC1c1ccccc1` (centres undefined) the AC40 was 2.53 µM.
In the case of `COc1ccc(N2CCN(C(=O)Cc3cccs3)CC2)cc1`, the AC40 is reported as > 15 µM (inactive).
In the case of `COC(=O)C1=C(C)N(Cc2ccccc2)C(=O)N[C@H]1c1cccc(F)c1`, the AC40 is reported as > 15 µM (inactive).
`C[C@H](CO)N1C[C@H](C)[C@@H](CN(C)CC2CCOCC2)Oc2ncc(C#Cc3ccc(F)cc3)cc2C1=O` was tested, and the AC40 was > 15 µM (inactive).
In the case of `COc1cccc(S(=O)(=O)Nc2ccc3c(c2)[C@H]2C[C@H](CC(=O)N(C)C)O[C@@H](CO)[C@H]2O3)c1`, the AC40 is reported as > 15 µM (inactive).
With `O=C(Nc1ccccc1N1CCOCC1)c1cccc([N+](=O)[O-])c1` the AC40 was > 7.5 µM (inactive).
`O=C(NC(=S)Nc1cc(Cl)ccc1N1CCOCC1)c1ccccc1[N+](=O)[O-]` was tested, and the AC40 was 13.6 µM.
With `COC(=O)C1=C(C)N(CC(C)C)C(=S)NC1c1ccc(-c2ccccc2)cc1` (centres undefined) the AC40 was > 15 µM (inactive) and 1.4 µM.
`CC[C@H](C)[C@@H]1NC(=O)CNC(=O)c2csc(n2)[C@H](C(C)(C)O)OC(=O)C(C)(C)[C@H](CCCC(C)(Cl)Cl)OC(=O)c2csc1n2` showed an AC40 of 2.66 µM.
`NC(=S)N/N=C/c1ccc(-c2cc(Cl)ccc2Cl)o1` gave an AC40 of 0.644 µM.
Molecule `COC(=O)C1=C(C)N(CC(C)C)C(=S)NC1c1ccc(F)cc1` (centres undefined) has an AC40 of 3.52 µM.
For `Cc1ccc(OCCn2c(=S)[nH]c3ccccc32)c(C(C)C)c1`, the AC40 was 0.883 µM.
For `CO[C@H]1CN(C)C(=O)c2cc(NC(=O)C3CC3)ccc2OC[C@@H](C)N(Cc2cncnc2)C[C@H]1C`, the AC40 was 12.9 µM.
`Cc1cccc(C)c1NC(=O)CN(C)C(=O)C1CC1C` (centres undefined) was tested, and the AC40 was > 15 µM (inactive).
With `COc1cccc(NC(=S)N2CCC(Cc3ccccc3)CC2)c1` the AC40 was 3.35 µM.
With `C[C@H](CO)N1C[C@H](C)[C@H](CN(C)C(=O)Nc2ccc3c(c2)OCO3)Oc2ncc(C#CC(C)(C)O)cc2C1=O` the AC40 was > 15 µM (inactive).
In the case of `C[C@H]1CN([C@@H](C)CO)C(=O)c2cc(NC(=O)Nc3ccc(F)cc3)ccc2O[C@@H]1CN(C)S(C)(=O)=O`, the AC40 is reported as > 15 µM (inactive).
In the case of `Cc1c(C(=O)NC(=S)Nc2ccccc2N2CCCC2)cccc1[N+](=O)[O-]`, the AC40 is reported as > 15 µM (inactive).
With `CCCN1C[C@H](C)[C@@H](OC)CN(C)C(=O)c2cc(NC(=O)c3cccc(F)c3)ccc2OC[C@@H]1C` the AC40 was > 15 µM (inactive).
For `Cc1cc(C(=O)NC(=S)Nc2ccccc2N2CCOCC2)ccc1[N+](=O)[O-]`, the AC40 was 4.95 µM.
For `CC(C)CC#Cc1cnc2c(c1)C(=O)N([C@H](C)CO)C[C@H](C)[C@H](CN(C)C(=O)c1cccnc1)O2`, the AC40 was > 15 µM (inactive).
With `C[C@H](CO)N1C[C@H](C)[C@H](CN(C)C(=O)Nc2cccc3ccccc23)Oc2ccc(NC(=O)Cc3ccccc3)cc2CC1=O` the AC40 was > 15 µM (inactive).
`CCOC(=O)NC(=S)Nc1ccc(C(C)(C)C)cc1Br` was tested, and the AC40 was 3.16 µM.
For `COC(=O)C1=C(C)N(CC(C)C)C(=S)NC1c1cccc(F)c1` (centres undefined), the AC40 was > 15 µM (inactive) and 3.43 µM.
In the case of `C[C@@H]1CN([C@@H](C)CO)C(=O)CCCn2nncc2CO[C@H]1CN(C)C(=O)Oc1cccc2ccccc12`, the AC40 is reported as > 15 µM (inactive).
`CCCNC(C)C(=O)Nc1ccccc1C` (centres undefined) was tested, and the AC40 was > 15 µM (inactive).
`O=C(NC(=S)Nc1ccccc1N1CCCC1)c1ccccc1[N+](=O)[O-]` was tested, and the AC40 was > 15 µM (inactive).
For `Cc1ccc(CSc2ncnc3c2cnn3-c2ccc(C)cc2)cc1`, the AC40 was > 15 µM (inactive).
For `CC(C)CC#Cc1cnc2c(c1)C(=O)N([C@H](C)CO)C[C@H](C)[C@@H](CN(C)Cc1cccc(F)c1)O2`, the AC40 was > 15 µM (inactive).
For `C[C@@H]1CCCCO[C@H](CN(C)S(=O)(=O)c2cccs2)[C@@H](C)CN([C@@H](C)CO)C(=O)c2cc(NC(=O)CCC(F)(F)F)ccc2O1`, the AC40 was > 15 µM (inactive).
With `O=C(N[C@H]1CC[C@H](CCn2cc(-c3ccccn3)nn2)O[C@H]1CO)c1ccc(F)cc1` the AC40 was > 15 µM (inactive).
In the case of `O=C(C1CCOCC1)N1CC[C@@H]2[C@@H](CO)Nc3ccc(Br)cc3[C@@H]21`, the AC40 is reported as > 15 µM (inactive).
For `C[C@H]1CN([C@@H](C)CO)C(=O)c2cc(-c3ccc(F)cc3)cnc2O[C@@H]1CN(C)CC1CCCCC1`, the AC40 was > 15 µM (inactive).
Work on `O=C(NC(=S)Nc1ccccc1N1CCOCC1)c1cccc([N+](=O)[O-])c1` yielded an AC40 of 5.69 µM.
`CNC[C@@H]1OCCCC[C@@H](C)Oc2ccc(NS(=O)(=O)c3ccc(Cl)cc3)cc2C(=O)N([C@H](C)CO)C[C@H]1C` was tested, and the AC40 was > 15 µM (inactive).
For `CC(C)NC(=O)N(C)C[C@H]1OCCCC[C@H](C)Oc2ccc(NC(=O)c3ccccc3)cc2C(=O)N([C@@H](C)CO)C[C@@H]1C`, the AC40 was > 15 µM (inactive).
With `Fc1ccccc1NC(=S)NCCc1cccc(Cl)c1` the AC40 was 3.27 µM.
In the case of `CC(C)c1ccccc1NC(=S)NN(Cc1ccccc1)c1ccccc1`, the AC40 is reported as > 15 µM (inactive).
`COCC(=O)Nc1ccc2c(c1)C(=O)N(C)C[C@H](OC)[C@@H](C)CN(C(=O)c1ccccc1)[C@@H](C)CO2` was tested, and the AC40 was > 15 µM (inactive).
Work on `COC(=O)C1=C(C)N(Cc2ccc(Br)cc2)C(=S)NC1c1ccccc1` (centres undefined) yielded an AC40 of 2.1 µM.
With `O=C(COC(=O)CCC1CCCC1)Nc1nc2c(F)c(F)c(F)cc2s1` the AC40 was > 15 µM (inactive).
In the case of `CCN1C(=S)N[C@@H](c2ccccc2)C(C(=O)OC)=C1C`, the AC40 is reported as > 15 µM (inactive).
With `C[C@@H]1CN([C@@H](C)CO)C(=O)c2cc(NS(=O)(=O)c3cn(C)cn3)ccc2O[C@@H](C)CCCCO[C@@H]1CN(C)Cc1ccc(C(F)(F)F)cc1` the AC40 was > 15 µM (inactive).
With `COc1ccccc1C#Cc1ccc2c(c1)O[C@H](CN(C)C(C)=O)[C@H](C)CN([C@@H](C)CO)S2(=O)=O` the AC40 was > 15 µM (inactive).
With `CCCCNC(=S)N/N=C/c1ccc(C#N)cc1` the AC40 was 4.58 µM.
`COc1cc2c(C(=O)N(C)c3cc(Cl)ccc3OC)cn(C)c(=O)c2cc1OC` was tested, and the AC40 was > 15 µM (inactive).
`O=C(NCCc1ccccc1)[C@@H]1[C@@H](CO)[C@@H]2Cn3c(cccc3=O)[C@H]1N2C(=O)C1CCC1` was tested, and the AC40 was > 7.5 µM (inactive).
`O=C(NC1CCCCC1)N[C@H]1C=C[C@@H](CC(=O)N2CCOCC2)O[C@@H]1CO` was tested, and the AC40 was > 15 µM (inactive).
For `Cc1noc(C)c1S(=O)(=O)Nc1ccc2c(c1)CC(=O)N([C@H](C)CO)C[C@H](C)[C@H](CN(C)S(=O)(=O)c1cccs1)O2`, the AC40 was > 15 µM (inactive).
With `CO[C@@H]1CN(C)C(=O)c2cc(NS(=O)(=O)c3cccc(C)c3)ccc2OC[C@@H](C)NC[C@H]1C` the AC40 was > 15 µM (inactive).
With `COc1ccc(C(=O)NC(=S)Nc2cccc(Cl)c2N2CCOCC2)cc1[N+](=O)[O-]` the AC40 was > 15 µM (inactive).
For `COc1cccc(-c2ccc3c(c2)[C@H]2[C@H](CCN2C(=O)Cc2ccncc2)[C@H](CO)N3C)c1`, the AC40 was > 15 µM (inactive).
For `Cc1ccccc1NC(=O)C(=O)NCCCN1CCCC1=O`, the AC40 was > 15 µM (inactive).
For `C[C@@H]1CN([C@@H](C)CO)C(=O)Cc2cc(NC(=O)c3ccncc3)ccc2O[C@H]1CN(C)Cc1ccncc1`, the AC40 was > 15 µM (inactive).
For `CCOc1ccc(CNC(=S)NCc2ccc(OCC)cc2)cc1`, the AC40 was > 15 µM (inactive).
For `CCCC(=O)N1CCC1(C)C(=O)Nc1ccc(C)cc1` (centres undefined), the AC40 was > 28.5 µM (inactive).
`COCCN1C(=S)N[C@@H](c2ccccc2)C(C(=O)OC)=C1C` gave an AC40 of 13.5 µM.
`S=C(NCc1ccccc1)NCC1COc2ccccc2O1` (centres undefined) showed an AC40 of 9.32 µM.
With `CO[C@@H]1CN(C)C(=O)c2ccc(NC(C)=O)cc2OC[C@@H](C)N(C(=O)Cc2cccnc2)C[C@H]1C` the AC40 was > 13.5 µM (inactive).
For `Cc1ccc(NC(=O)N2CCCC2C(=O)Nc2c(C)cc(C)cc2C)cc1` (centres undefined), the AC40 was > 15 µM (inactive).
With `Cc1noc(C)c1NC(=O)N(C)C[C@H]1OCCCC[C@H](C)Oc2ccc(NC(=O)NC(C)C)cc2C(=O)N([C@@H](C)CO)C[C@@H]1C` the AC40 was > 15 µM (inactive).
In the case of `S=C(Nc1ccccc1Oc1ccccc1)Nc1cccc(Cl)c1Cl`, the AC40 is reported as > 15 µM (inactive).
`COC(=O)C1=C(C)N(Cc2ccc(Cl)cc2)C(=S)NC1c1ccc(OC)cc1` (centres undefined) was tested, and the AC40 was 11.8 µM.
`CCCOc1ccc(CNC(=S)NCc2ccc(OC(C)C)cc2)cc1` gave an AC40 of 14.3 µM.
For `N#Cc1ccc(C23CC4(C2)[C@H](CN(Cc2ccc(C(F)(F)F)cc2)[C@@H]4c2ccccc2)C3c2ccc(C(F)(F)F)cc2)cc1` (some centres undefined), the AC40 was > 15 µM (inactive).
`C[C@@H]1CN([C@H](C)CO)C(=O)Cc2cc(NC(=O)NC3CCCCC3)ccc2O[C@@H]1CN(C)Cc1ccccc1` was tested, and the AC40 was > 15 µM (inactive).
For `Cc1ccc(C(=O)NC(=S)Nc2ccccc2N2CCCC2)cc1[N+](=O)[O-]`, the AC40 was > 15 µM (inactive).
`CCOC(=O)c1c(-c2ccc(-c3ccccc3)cc2)csc1NC(=O)CNCCN(C)C` gave an AC40 of 1.62 µM.
With `C[C@@H]1CN([C@H](C)CO)S(=O)(=O)c2ccc(C#C[C@@H](C)O)cc2O[C@@H]1CN(C)Cc1ccncc1` the AC40 was > 15 µM (inactive).
In the case of `COc1ccc(CNC(=S)NCc2ccc(OC(C)C)cc2)cc1`, the AC40 is reported as 8.39 µM.
With `Cc1cccc(C)c1NC(=O)C1CCCN1C(=O)NCc1ccccc1` (centres undefined) the AC40 was > 15 µM (inactive).
For `CC=Cc1ccc2n(c1=O)C[C@@H]1[C@@H](CO)[C@H](C(=O)N3CCc4ccccc4C3)N(C(=O)C3CC3)[C@H]21` (mixture of isomers), the AC40 was > 15 µM (inactive).
Molecule `CCOC(=O)NC(=S)Nc1ccc(C(C)(C)C)cc1` has an AC40 of 1.21 µM.
